In patent US10280163B2 (BeiGene, Ltd., priority 2015, dated 2019):
Like-named read-outs stand apart in the source and are kept apart here.

Assays:
Recombinant TDO = target: T1, Recombinant TDO (Homo sapiens, UniProt P48775); experiment: TDO enzymatic assay; type: biochemical; conditions: Table 1, 5-substituted imidazo[1,5-a]pyridines; 100 nM TDO, 0.5 mM L-tryptophan; read-out: Enzyme IC50 (nM) TDO
T1 construct: His tag (C); made in house; host or cells: E. coli
Protocol: Recombinant TDO was overexpressed and purified from E. coli cells with a C-terminal His tag. TDO enzymatic assay was performed using the same methodology as IDO1 enzymatic assay except that 100 nM TDO and 0.5 mM L-tryptophan (Km concentration) were used in the TDO assay.

Recombinant IDO1 = target: T2, Recombinant IDO1 (Homo sapiens, UniProt P14902); experiment: IDO1 enzymatic assay; type: biochemical; conditions: 50 nM IDO1, 1.3 mM D-tryptophan, read-out: Enzyme IC50 (nM) IDO1
T2 construct: His tag (N); made in house; host or cells: E. coli
Protocol: Recombinant IDO1 was overexpressed and purified from E. coli cells with an N-terminal His tag. IDO1 enzymatic assay was carried out using a methodology similar to described in the literature (J. Biol. Chem. (1980), 255, 1339-1345.). The reaction mixture contains 50 nM IDO1, 1.3 mM D-tryptophan, 5 mM L-ascorbic acid, 6.25 μM methylene Blue, 0.4 mg/mL catalase and compound (or DMSO) in a buffer containing 50 mM potassium phosphate pH 7.5 and 0.1% BSA. After incubation at 24° C. for 1.5 hours, absorbance of the reaction mixture was continuously read at 321 nm to monitor the formation of N′-formylkynurenine by a FULOstar OMEGA plate reader (BMG LABTECH) for 1 hour. The enzymatic activity was determined by measuring the slope of the linear absorbance increase as a function of time. The IC50s are calculated based on remaining enzyme activity in the presence of increasing concentrations of compounds.

[1] = target: T3, cellular IDO1 in HeLa cells (Homo sapiens, UniProt P14902); experiment: HeLa cell-based IDO1 Kyn (kynurenine) production assay; conditions: IFN-γ 100 ng/mL, 48 hours
T3 construct: endogenous in cells; host or cells: HeLa cells (American Type Tissue Culture Collection), induced with human recombinant IFN-γ
Protocol: HeLa Cell-Based IDO1 Kyn (Kynurenine) Production Assay:
The inhibitory activity of IDO1 inhibitors is determined by using a colorimetric reaction to measure Kyn generated from L-Trp (L-Tryptophon) oxidation by cellular IDO1 in HeLa cells after induction of IDO1 by IFN-γ.
Hela cells were obtained from the American Type Tissue Culture Collection and recovered in 10% FBS-containing phenol red-free DMEM medium supplemented with 0.4 mM L-Trp. Cells were plated onto a 96-well plate (100 μl/well) at 8000 cells per well. Human recombinant IFN-γ (8901SC, CST) was added to cells (final concentration 100 ng/mL) to stimulate endogenous IDO1. Compounds at different concentrations diluted in dimethylsulfoxide (DMSO) were added simultaneously with IFN-γ. Cells were kept at 37° C. in a humidified incubator supplied with 5% CO2. After 48 hours of incubation, 100 μl supernatant from each well was removed to a new plate. The protein in the medium was precipitated with the addition of 8 μl 6N trichloroacetic acid. The plate was incubated at 60° C. for 45 min and then centrifugation at 2500 rpm for 10 min to remove sediments. 80 μl supernatants were carefully removed to a new clean plate and added with an equal volume of 2% 4-(Dimethylamino) benzaldehyde (D2004, sigma) dissolved in glacial acetic acid. The absorbance at 480 nm wavelength derived from Kyn was measured using a FULOstar OMEGA plate reader (BMG LABTECH). The IC50 for each compound was derived from fitting the dose-response data to the four-parameter logistic model by using Graphpad Prism software.

[2] = Table 1, 5-substituted imidazo[1,5-a]pyridines
[3] = Table 2, 8-substituted imidazo[1,5-a]pyridines

T3 sequence (P14902 whole entry): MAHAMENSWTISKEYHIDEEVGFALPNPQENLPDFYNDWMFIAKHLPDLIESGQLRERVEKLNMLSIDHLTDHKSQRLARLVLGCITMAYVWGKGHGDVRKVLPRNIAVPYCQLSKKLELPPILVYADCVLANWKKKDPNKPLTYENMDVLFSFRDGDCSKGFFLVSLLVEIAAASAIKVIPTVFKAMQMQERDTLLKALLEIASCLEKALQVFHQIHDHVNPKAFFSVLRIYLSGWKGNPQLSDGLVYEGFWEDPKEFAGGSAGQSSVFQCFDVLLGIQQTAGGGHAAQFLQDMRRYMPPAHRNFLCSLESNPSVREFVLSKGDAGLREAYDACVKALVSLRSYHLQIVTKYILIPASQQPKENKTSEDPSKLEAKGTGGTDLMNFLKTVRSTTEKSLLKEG
T2 sequence (P14902 whole entry): as above
T1 sequence (P48775 whole entry): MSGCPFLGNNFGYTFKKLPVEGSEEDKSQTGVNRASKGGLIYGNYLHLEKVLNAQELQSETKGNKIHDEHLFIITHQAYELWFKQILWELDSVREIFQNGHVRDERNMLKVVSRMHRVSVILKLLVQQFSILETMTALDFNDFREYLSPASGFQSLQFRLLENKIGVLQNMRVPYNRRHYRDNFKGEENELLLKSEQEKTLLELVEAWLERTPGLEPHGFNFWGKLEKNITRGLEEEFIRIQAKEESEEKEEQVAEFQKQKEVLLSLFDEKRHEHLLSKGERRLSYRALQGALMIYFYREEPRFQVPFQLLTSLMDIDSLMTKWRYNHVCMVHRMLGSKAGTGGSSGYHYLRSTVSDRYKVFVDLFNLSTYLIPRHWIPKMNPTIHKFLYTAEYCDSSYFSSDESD

| SMILES | IC50 (Recombinant TDO) [nM] | IC50 (Recombinant IDO1; [2]) [nM] | EC50 [1, 2] [nM] | EC50 [1, 3] [nM] | IC50 (Recombinant IDO1; [3]) [nM] |
| --- | --- | --- | --- | --- | --- |
| OC(CC1CCCCC1)c1c(C2CC2)ccc2cncn12 (single isomer, unassigned) [Example A139a] | 1800 | 11 | – | – | – |
| OC(CC1CCCCC1)c1c(C2CC2)ccc2cncn12 (single isomer, unassigned) [Example A139b] | 13000 | 4500 | – | – | – |
| OC1CC2CC1CC2C(O)c1c(C2CC2)ccc2cncn12 (centres unmarked) [Example A165, 5-((6-cyclopropylimidazo[1,5-a]pyridin-5-yl)(hydroxy)methyl)bicyclo[2.2.1]heptan-2-ol] | – | 430 | 1200 | – | – |
| OC(CC1CC1)c1cccn2cncc12 (centres unmarked) [Example B007, 2-cyclopropyl-1-(imidazo[1,5-a]pyridin-8-yl)ethan-1-ol] | – | – | – | > 10000 | 6600 |
| CC(O)(CC1CCCCC1)c1cccn2cncc12 (centres unmarked) [Example B009, 1-cyclohexyl-2-(imidazo[1,5-a]pyridin-8-yl)propan-2-ol] | – | – | – | > 10000 | 18000 |
| OC(CCc1cccn2cncc12)C1CCCCC1 (centres unmarked) [Example B010, 1-Cyclohexyl-3-(imidazo[1,5-a]pyridin-8-yl)propan-1-ol] | – | – | – | > 10000 | 14000 |
| OC(c1c(C(F)(F)F)ccn2cncc12)C1CCCCC1 (centres unmarked) [Example B111, Cyclohexyl(7-(trifluoromethyl)imidazo[1,5-a]pyridin-8-yl)methanol] | – | – | – | 415 | 85 |
| OC(c1c(C2CC2)ccn2cncc12)C1CCOCC1 (centres unmarked) [Example B112, (7-Cyclopropylimidazo[1,5-a]pyridin-8-yl)(tetrahydro-2H-pyran-4-yl)methanol] | – | – | – | 1680 | 530 |
| CC(C)(C)c1ccn2cncc2c1C(O)C1CCCCC1 (centres unmarked) [Example B113, (7-(tert-Butyl)imidazo[1,5-a]pyridin-8-yl)(cyclohexyl)methanol] | – | – | – | 9340 | 1300 |
| OC(c1c(C2CCC2)ccn2cncc12)C1CCCCC1 (centres unmarked) [Example B114, (7-Cyclobutylimidazo[1,5-a]pyridin-8-yl)(cyclohexyl)methanol] | – | – | – | 3040 | 630 |
| C=CC(O)c1c(C2CC2)ccn2cncc12 (centres unmarked) [Example B115, 1-(7-Cyclopropylimidazo[1,5-a]pyridin-8-yl)prop-2-en-1-ol] | – | – | – | > 10000 | 120 |
| OC(c1c(Cl)ccn2cncc12)C1CC=CCC1 (centres unmarked) [Example B116, (7-Chloroimidazo[1,5-a]pyridin-8-yl)(cyclohex-3-en-1-yl)methanol] | – | – | – | 4580 | 61 |
| OC(c1c(C2CC2)ccn2cncc12)C1C2CC3CC(C2)CC1C3 (centres unmarked) [Example B117, (Adamantan-2-yl)(7-cyclopropylimidazo[1,5-a]pyridin-8-yl)methanol] | – | – | – | 401 | 1100 |
| OC(CC12CC3CC(CC(C3)C1)C2)c1c(C2CC2)ccn2cncc12 (centres unmarked) [Example B118, 2-(Adamantan-1-yl)-1-(7-cyclopropylimidazo[1,5-a]pyridin-8-yl)ethan-1-ol] | – | – | – | 179 | 280 |
| CC(C)c1ccn2cncc2c1C(O)C1CCC(O[Si](C)(C)C(C)(C)C)CC1 (centres unmarked) [Example B120, (4-((tert-Butyldimethylsilyl)oxy)cyclohexyl)(7-isopropylimidazo[1,5-a]pyridin-8-yl)methanol] | – | – | – | > 10000 | 790 |
| OC(c1c(C2CC2)ccn2cncc12)C1CC2CCC1C2 (centres unmarked) [Example B122, bicyclo[2.2.1]heptan-2-yl(7-cyclopropylimidazo[1,5-a]pyridin-8-yl)methanol] | – | – | – | 116 | 53 |

| SMILES | IC50 (Recombinant TDO) [nM] | IC50 (Recombinant IDO1; [2]) [nM] | EC50 [1, 2] [nM] | EC50 [1, 3] [nM] | IC50 (Recombinant IDO1; [3]) [nM] |
| --- | --- | --- | --- | --- | --- |
| O[C@H](c1c(C2CC2)ccn2cncc12)[C@H]1C[C@H]2CC[C@@H]1C2 [Example B122a, (S)-((1R,2S,4S)-bicyclo[2.2.1]heptan-2-yl)(7-cyclopropylimidazo[1,5-a]pyridin-8-yl)methanol] | – | – | – | 33 | 58 |
| OC(c1c(C2CC2)ccn2cncc12)C1CC2C=CC1CC2 (centres unmarked) [Example B123, Bicyclo[2.2.2]oct-5-en-2-yl(7-cyclopropylimidazo[1,5-a]pyridin-8-yl)methanol] | – | – | – | 754 | 260 |
| OC(c1c(C2CC2)ccn2cncc12)C1CC2CCC1CC2 (centres unmarked) [Example B124, Bicyclo[2.2.2]octan-2-yl(7-cyclopropylimidazo[1,5-a]pyridin-8-yl)methanol] | – | – | – | 376 | 440 |
| O=C(NC1CC1)c1cccc(C(O)c2c(C3CC3)ccn3cncc23)c1 (centres unmarked) [Example B125, N-cyclopropyl-3-((7-cyclopropylimidazo[1,5-a]pyridin-8-yl)(hydroxy)methyl)benzamide] | – | – | – | 8500 | 170 |
| O=C(OCc1ccccc1)N1CCCC(C(O)c2c(C3CC3)ccn3cncc23)C1 (centres unmarked) [Example B129, Benzyl-3-((7-cyclopropylimidazo[1,5-a]pyridin-8-yl)(hydroxy)methyl) piperidine-1-carboxylate] | – | – | – | > 10000 | 310 |
| CC(C)(C)OC(=O)NCC(=O)N1CCCC(C(O)c2c(C3CC3)ccn3cncc23)C1 (centres unmarked) [Example B131, tert-Butyl (2-(3-((7-cyclopropylimidazo[1,5-a]pyridin-8-yl)(hydroxy)methyl)piperidin-1-yl)-2-oxoethyl) carbamate] | – | – | – | > 10000 | 1700 |
| NCC(=O)N1CCCC(C(O)c2c(C3CC3)ccn3cncc23)C1 (centres unmarked) [Example B132, 2-Amino-1-(3-((7-cyclopropylimidazo[1,5-a]pyridin-8-yl)(hydroxy)methyl)piperidin-1-yl)ethan-1-one] | – | – | – | > 10000 | 13000 |
| O=C(c1ccccc1)N1CCCC(C(O)c2c(C3CC3)ccn3cncc23)C1 (centres unmarked) [Example B134, (3-((7-Cyclopropylimidazo[1,5-a]pyridin-8-yl)(hydroxy)methyl)piperidin-1-yl)(phenyl) methanone] | – | – | – | > 10000 | 2000 |
| OCC1(C(O)c2c(C3CC3)ccn3cncc23)CCCCC1 (centres unmarked) [Example B136, (7-Cyclopropylimidazo[1,5-a]pyridin-8-yl)(1-(hydroxymethyl)cyclohexyl)methanol] | – | – | – | 286 | 760 |
| CCOC(COCC1(C(O)c2c(C3CC3)ccn3cncc23)CCCCC1)OCC (centres unmarked) [Example B137, (7-Cyclopropylimidazo[1,5-a]pyridin-8-yl)(1-((2,2-diethoxyethoxy)methyl)cyclohexyl)methanol] | – | – | – | 3290 | 2200 |
| O=C(O)C1CCCC(C(O)c2c(C3CC3)ccn3cncc23)C1 (centres unmarked) [Example B138, 3-((7-Cyclopropylimidazo[1,5-a]pyridin-8-yl)(hydroxy)methyl)cyclohexane-1-carboxylic acid] | – | – | – | > 10000 | 1000 |
| OC(c1c(C2CC2)ccn2cncc12)C1CC2CC2C1 (centres unmarked) [Example B139, bicyclo[3.1.0]hexan-3-yl(7-cyclopropylimidazo[1,5-a]pyridin-8-yl)methanol] | – | – | – | 199 | 85 |
| OC(c1c(C2CC2)ccn2cncc12)C1CCC2CC2C1 (centres unmarked) [Example B140, bicyclo[4.1.0]heptan-3-yl(7-cyclopropylimidazo[1,5-a]pyridin-8-yl)methanol] | – | – | – | 147 | 71 |
| OC(c1c(C2CC2)ccn2cncc12)C1C=CCCC1 (centres unmarked) [Example B141, cyclohex-2-en-1-yl(7-cyclopropylimidazo[1,5-a]pyridin-8-yl)methanol] | – | – | – | 1700 | 45 |
| OC1CC2CC1CC2C(O)c1c(C2CC2)ccn2cncc12 (centres unmarked) [Example B142, 5-((7-cyclopropylimidazo[1,5-a]pyridin-8-yl)(hydroxy)methyl)bicyclo[2.2.1]heptan-2-ol] | – | – | – | 6320 | 1300 |
